Test results as given in patent publication US10336735B2, “Small molecule inhibitors of fibrosis” (THE CALIFORNIA INSTITUTE FOR BIOMEDICAL RESEARCH, priority 2014, dated 2019).
pEC50: −log10 of the molar value.

Tested on: primary human lung fibroblasts and primary rodent HSCs
Test: High content imaging assay (α-SMA staining, cell morphology) of fibroblast to myofibroblast transdifferentiation, confirmed by Western blot and RT-PCR
Settings: imaging and western based activity
In short: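 Primary human lung fibroblasts and primary rodent HSCs were serum-starved and then TGF-β-treated to drive transdifferentiation in 384-well format, with SB-431542 as positive control. Readouts were α-SMA immunofluorescence and cell morphology by high-content imaging, confirmed by Western blot and RT-PCR in 4-day, 4-point dose-response assays; EC50 values are graded.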

Row | Compound | pEC50 (Homo sapiens, Fibroblast) | pEC50
1 | N#Cc1cc(OC[C@H]2CO[C@](Cn3nccn3)(c3ccccc3)C2)ccc1N1CCN(c2ccc(-n3cnn(CC4CCCC4)c3=O)cc2)CC1 [Compound 146] | < 4.52 | 
2 | CCC(C)n1ncn(-c2ccc(N3CCN(c4ccc(OC[C@H]5CO[C@](Cn6nccn6)(c6ccccc6)C5)cc4)CC3)cc2)c1=O (some centres unmarked) [Compound 147] | < 4.52 | 
3 | CCC(C)n1ncn(-c2ccc(N3CCN(c4ccc(OC[C@H]5CO[C@](Cn6nccn6)(c6ccccc6)C5)cc4F)CC3)cc2)c1=O (some centres unmarked) [Compound 148] | < 4.52 | 
4 | CCC(C)n1ncn(-c2ccc(N3CCN(c4ccc(OC[C@H]5CO[C@](Cn6nccn6)(c6ccccc6)C5)cc4C#N)CC3)cc2)c1=O (some centres unmarked) [Compound 149] | < 4.52 | 
5 | CCC(C)n1cnn(-c2ccc(N3CCN(c4ccc(OC[C@@H]5CO[C@@](Cc6ccccc6)(c6ccccc6)O5)cc4)CC3)cc2)c1=O (some centres unmarked) [Compound 150] | < 4.52 | 
6 | CC1(CCn2ncn(-c3ccc(N4CCN(c5ccc(OC[C@@H]6CO[C@@](Cn7cncn7)(c7ccc(Br)cc7)O6)cc5)CC4)cc3)c2=O)N=N1 [Compound 151] | 5.30 to 6.30 | 
7 | CCC(CC)n1ncn(-c2ccc(N3CCN(c4ccc(OC[C@@H]5CO[C@@](Cn6nccn6)(c6ccc(Cl)cc6Cl)O5)cc4C#N)CC3)cc2)c1=O [Compound 152] | 4.52 to 5.30 | 
8 | O=c1n(-c2ccc(N3CCN(c4ccc(OC[C@@H]5CO[C@@](Cn6nccn6)(c6ccc(Cl)cc6Cl)O5)cc4F)CC3)cc2)cnn1CC1CCCC1 [Compound 154] | > 6.30 | 
9 | CCC(CC)n1ncn(-c2ccc(N3CCN(c4ccc(OC[C@@H]5CO[C@@](Cn6nccn6)(c6ccccc6)O5)cc4C#N)CC3)cc2)c1=O [Compound 155] | > 6.30 | 
10 | N#Cc1cc(OC[C@@H]2CO[C@@](Cn3nccn3)(c3ccccc3)O2)ccc1N1CCN(c2ccc(-n3cnn(CC4CCCC4)c3=O)cc2)CC1 [Compound 156] | 5.30 to 6.30 | 
11 | O=c1n(-c2ccc(N3CCN(c4ccc(OC[C@@H]5CO[C@@](Cn6nccn6)(c6ccccc6)O5)cc4F)CC3)cc2)cnn1CC1CCCC1 [Compound 157] | > 6.30 | 
12 | CCC(CC)n1ncn(-c2ccc(N3CCN(c4ccc(OC[C@H]5CO[C@](Cn6nccn6)(c6ccccc6)O5)cc4)CC3)cc2)c1=O [Compound 160] | > 6.30 | 
13 | CCC(CC)n1ncn(-c2ccc(N3CCN(c4ccc(OC[C@@H]5CO[C@@](Cn6nccn6)(c6ccccc6)O5)cc4)CC3)cc2)c1=O [Compound 161] | > 6.30 | 
14 | O=c1n(-c2ccc(N3CCN(c4ccc(OC[C@H]5CO[C@](Cn6nccn6)(c6ccc(Cl)cc6Cl)O5)cc4F)CC3)cc2)cnn1CC1CCCC1 [Compound 163] | > 6.30 | 
15 | CCC(CC)n1ncn(-c2ccc(N3CCN(c4ccc(OC[C@@H]5CO[C@@](Cn6nccn6)(c6ccc(Cl)cc6Cl)O5)cc4F)CC3)cc2)c1=O [Compound 164] | > 6.30 | 
16 | CCC(CC)n1ncn(-c2ccc(N3CCN(c4ccc(OC[C@H]5CO[C@](Cn6nccn6)(c6ccc(Cl)cc6Cl)O5)cc4F)CC3)cc2)c1=O [Compound 165] | > 6.30 | 
17 | CCC(CC)n1ncn(-c2ccc(N3CCN(c4ccc(OC[C@@H]5CO[C@@](Cn6cccn6)(c6ccccc6)O5)cc4)CC3)cc2)c1=O [Compound 166] | > 6.30 | 
18 | CCC(CC)n1ncn(-c2ccc(N3CCN(c4ccc(OC[C@H]5CO[C@](Cn6cccn6)(c6ccccc6)O5)cc4)CC3)cc2)c1=O [Compound 167] | > 6.30 | 
19 | CC[C@H](C)n1ncn(-c2ccc(N3CCN(c4ccc(OC[C@@H]5CO[C@@](Cn6cccn6)(c6ccccc6)O5)cc4)CC3)cc2)c1=O [Compound 168] | > 6.30 | 
20 | CC[C@@H](C)n1ncn(-c2ccc(N3CCN(c4ccc(OC[C@@H]5CO[C@@](Cn6cccn6)(c6ccccc6)O5)cc4)CC3)cc2)c1=O [Compound 169] | > 6.30 | 
21 | CC[C@H](C)n1ncn(-c2ccc(N3CCN(c4ccc(OC[C@H]5CO[C@](Cn6cccn6)(c6ccccc6)O5)cc4)CC3)cc2)c1=O [Compound 170] | > 6.30 | 
22 | CC[C@@H](C)n1ncn(-c2ccc(N3CCN(c4ccc(OC[C@H]5CO[C@](Cn6cccn6)(c6ccccc6)O5)cc4)CC3)cc2)c1=O [Compound 171] | > 6.30 | 

Row | Compound | pEC50 (Homo sapiens, Fibroblast) | pEC50
23 | CC[C@H](C)n1ncn(-c2ccc(N3CCN(c4ccc(OC[C@@H]5CO[C@@](Cn6cccn6)(c6ccc(C#N)cc6C)O5)cc4)CC3)cc2)c1=O [Compound 172] | 5.30 to 6.30 | 
24 | CC[C@@H](C)n1ncn(-c2ccc(N3CCN(c4ccc(OC[C@@H]5CO[C@@](Cn6cccn6)(c6ccc(C#N)cc6C)O5)cc4)CC3)cc2)c1=O [Compound 173] | 5.30 to 6.30 | 
25 | CC[C@H](C)n1ncn(-c2ccc(N3CCN(c4ccc(OC[C@H]5CO[C@](Cn6cccn6)(c6ccc(C#N)cc6C)O5)cc4)CC3)cc2)c1=O [Compound 174] | 5.30 to 6.30 | 
26 | CC[C@@H](C)n1ncn(-c2ccc(N3CCN(c4ccc(OC[C@H]5CO[C@](Cn6cccn6)(c6ccc(C#N)cc6C)O5)cc4)CC3)cc2)c1=O [Compound 175] | 4.52 to 5.30 | 
27 | CCC(CC)n1ncn(-c2ccc(N3CCN(c4ccc(OC[C@@H]5CO[C@@](Cn6cccn6)(c6ccc(C#N)cc6C)O5)cc4)CC3)cc2)c1=O [Compound 176] | > 6.30 | 
28 | CCC(CC)n1ncn(-c2ccc(N3CCN(c4ccc(OC[C@H]5CO[C@](Cn6cccn6)(c6ccc(C#N)cc6C)O5)cc4)CC3)cc2)c1=O [Compound 177] | 5.30 to 6.30 | 
29 | CCC(C)n1ncn(-c2ccc(N3CCN(c4ccc(OC[C@@H]5CO[C@@](Cn6nccn6)(c6ccccc6)O5)cc4)CC3)cc2)c1=O (some centres unmarked) [Compound 178] | > 6.30 | 
30 | CC[C@@H](C)n1ncn(-c2ccc(N3CCN(c4ccc(OC[C@@H]5CO[C@@](Cn6nccn6)(c6ccccc6)O5)cc4)CC3)cc2)c1=O [Compound 179, 4-(4-(4-(4-(((2S,4R)-2-((2H-1,2,3-triazol-2-yl)methyl)-2-phenyl-1,3-dioxolan-4-yl)methoxy)phenyl)piperazin-1-yl)phenyl)-(R)-1-sec-butyl-1H-1,2,4-triazol-5(4H)-one] | > 6.30 | 
31 | CC[C@H](C)n1ncn(-c2ccc(N3CCN(c4ccc(OC[C@@H]5CO[C@@](Cn6nccn6)(c6ccccc6)O5)cc4)CC3)cc2)c1=O [Compound 180, 4-(4-(4-(4-(((2S,4R)-2-((2H-1,2,3-triazol-2-yl)methyl)-2-phenyl-1,3-dioxolan-4-yl)methoxy)phenyl)piperazin-1-yl)phenyl)-(S)-1-sec-butyl-1H-1,2,4-triazol-5(4H)-one] | > 6.30 | 
32 | CCC(C)n1ncn(-c2ccc(N3CCN(c4ccc(OC[C@H]5CO[C@](Cn6nccn6)(c6ccccc6)O5)cc4)CC3)cc2)c1=O (some centres unmarked) [Compound 181] | > 6.30 | 
33 | CC[C@@H](C)n1ncn(-c2ccc(N3CCN(c4ccc(OC[C@H]5CO[C@](Cn6nccn6)(c6ccccc6)O5)cc4)CC3)cc2)c1=O [Compound 182, 4-(4-(4-(4-(((2R,4S)-2-((2H-1,2,3-triazol-2-yl)methyl)-2-phenyl-1,3-dioxolan-4-yl)methoxy)phenyl)piperazin-1-yl)phenyl)-(R)-1-sec-butyl-1H-1,2,4-triazol-5(4H)-one] | > 6.30 | 
34 | CC[C@H](C)n1ncn(-c2ccc(N3CCN(c4ccc(OC[C@H]5CO[C@](Cn6nccn6)(c6ccccc6)O5)cc4)CC3)cc2)c1=O [Compound 183, 4-(4-(4-(4-(((2R,4S)-2-((2H-1,2,3-triazol-2-yl)methyl)-2-phenyl-1,3-dioxolan-4-yl)methoxy)phenyl)piperazin-1-yl)phenyl)-(S)-1-sec-butyl-1H-1,2,4-triazol-5(4H)-one] | > 6.30 | 
35 | CC[C@@H](C)n1ncn(-c2ccc(N3CCN(c4ccc(OC[C@H]5CO[C@@](Cn6nccn6)(c6ccccc6)O5)cc4)CC3)cc2)c1=O [Compound 184] | > 6.30 | 
36 | CC[C@H](C)n1ncn(-c2ccc(N3CCN(c4ccc(OC[C@H]5CO[C@@](Cn6nccn6)(c6ccccc6)O5)cc4)CC3)cc2)c1=O [Compound 185] | > 6.30 | 
37 | CCC(C)n1ncn(-c2ccc(N3CCN(c4ccc(OC[C@@H]5CO[C@](Cn6nccn6)(c6ccccc6)O5)cc4)CC3)cc2)c1=O (some centres unmarked) [Compound 186] | 4.52 to 5.30 | 
38 | CCC(C)n1ncn(-c2ccc(N3CCN(c4ccc(OC[C@@H]5CO[C@](Cn6nccn6)(c6ccccc6)O5)cc4)CC3)cc2)c1=O (some centres unmarked) [Compound 187] |  | 4.52 to 5.30
39 | CCC(C)n1ncn(-c2ccc(N3CCN(c4ccc(OC[C@H]5CO[C@@](Cn6nccn6)(c6ccccc6)O5)cc4)CC3)cc2)c1=O (some centres unmarked) [Compound 188] | 4.52 to 5.30 | 
40 | CC[C@@H](C)n1ncn(-c2ccc(N3CCN(c4ccc(OC[C@@H]5CO[C@](Cn6nccn6)(c6ccccc6)O5)cc4)CC3)cc2)c1=O [Compound 189] | 4.52 to 5.30 | 
41 | CC[C@H](C)n1ncn(-c2ccc(N3CCN(c4ccc(OC[C@@H]5CO[C@](Cn6nccn6)(c6ccccc6)O5)cc4)CC3)cc2)c1=O [Compound 190] | 5.30 to 6.30 | 
42 | C#CCCCn1ncn(-c2ccc(N3CCN(c4ccc(OC[C@@H]5CO[C@@](Cn6cncn6)(c6ccc(N=[N+]=[N-])cc6)O5)cc4)CC3)cc2)c1=O [Compound 191] | 5.30 to 6.30 | 
43 | C#Cc1ccc([C@]2(Cn3cncn3)OC[C@@H](COc3ccc(N4CCN(c5ccc(-n6cnn(CCC7(C)N=N7)c6=O)cc5)CC4)cc3)O2)cc1 [Compound 192] | 5.30 to 6.30 | 
44 | cis (±)-4-(4-(4-(4-((4-((2H-1,2,3-triazol-2-yl)methyl)-4-(2,4-difluorophenyl)-1,3-dioxolan-2-yl)methoxy)phenyl)piperazin-1-yl)phenyl)-1-sec-butyl-1H-1,2,4-triazol-5(4H)-one [Compound 199] |  | > 6.30
